Values of other authors in patent US7388012B2, “(Hydrazido)(amino)thiophene compounds” (OSI Pharmaceuticals, Inc., priority 2004, dated 2008).
Structures can show the parent of a compound that is named as a salt.

Legend:
[1] = system: MO7e human leukemia cells
[2] = system: MO7e human leukemia cells; remark: listed apart in the source

Cc1ccc(NC(=O)c2ccc(CN3CCN(C)CC3)cc2)cc1Nc1nccc(-c2cccnc2)n1 [Gleevec, imatinib mesylate]
Kit ligand-stimulated growth of MO7e human leukemia cells ([1]; Kit ligand-stimulated): inhibited | apoptosis of MO7e human leukemia cells ([1]; Kit ligand-stimulated conditions): induces apoptosis | GM-CSF stimulated growth of MO7e human leukemia cells [2]: not affected
